Measurements published in patent publication US4120953A, “Novel 2,2', 2"-[s-phenenyltris(sulfonylimino)tris]-[2-deoxy-α-D-glucopyranose] , dodecakis (H-sulfate) compounds and their salts” (American Cyanamid Company, priority 1977, dated 1978).
Where a name gives a salt, the structure may show the parent alone.

Key:
[1] = system: shunt pathway activated by cobra venom factor; assay: Test, Code 036 (C-Shunt inhibitor); assay type: cell-based; conditions: serial two-fold dilution assay; lysis of fragile human erythrocytes in autologous serum
activated human C1 = activated human C1 (Homo sapiens, UniProt P09871); assay: Test, Code 026 (C1 inhibitor); assay type: biochemical; conditions: serial two-fold dilution assay; higher well numbers indicate higher activity; protection of human C2 from C1 and C4
Procedure: (§1) This test measures the ability of activated human C1 to destroy fluid phase human C2 in the presence of C4 and appropriate dilutions of the test compound. An active inhibitor protects C2 from C1 and C4; (ii) Test, Code 035 (C3-C9 inhibitor) - This test determines the ability of the late components of human complement (C3-C9) to lyse EAC 142 in the presence of appropriate dilutions of the test compound. […] The lesion is measured in terms of diameter, edema and hemorrhage and the extent to which a combined index of these is inhibited by prior intraperitoneal injection of the test compound at […] is then reported, unless otherwise stated; (v) Forssman Shock Test -- Lethal shock is produced in guinea pigs by an i.v. injection of anti-Forssman antiserum and the harmonic mean death time of treated guinea pigs is compared with that of simultaneous controls; (vi) Complement Level Reduction Test -- In this test, the above dosed guinea pigs, or others, are bled for serum and the complement level is determined in undiluted serum by the capillary tube method of U.S. Pat. No. 3,876,376 and compared to undosed control guinea pigs; and (vii) Cap 50 Test -- Here, appropriate amounts of the test compound are added to a pool of guinea pig serum in vitro, after which the undiluted serum capillary tube assay referred to above is run. […]

[2] = system: late components of human complement (C3-C9); assay: Test, Code 035 (C3-C9 inhibitor); assay type: biochemical; design: key: N = negative; conditions: serial two-fold dilution assay; protection of EAC 142 from lysis by human C3-C9
Procedure: as §1

Row | SMILES | In Vitro Activity Shunt Inhibition 036 Wells [1] | In Vitro Activity C1 026 Wells (activated human C1) | In Vitro Activity C-Late 035 Wells [2]
1 | O=S(=O)(O)OC[C@H]1O[C@H](OS(=O)(=O)O)[C@H](NS(=O)(=O)c2cc(S(=O)(=O)N[C@H]3[C@@H](OS(=O)(=O)O)O[C@H](COS(=O)(=O)O)[C@@H](OS(=O)(=O)O)[C@@H]3OS(=O)(=O)O)cc(S(=O)(=O)N[C@H]3[C@@H](OS(=O)(=O)O)O[C@H](COS(=O)(=O)O)[C@@H](OS(=O)(=O)O)[C@@H]3OS(=O)(=O)O)c2)[C@@H](OS(=O)(=O)O)[C@@H]1OS(=O)(=O)O [2,2',2"-[s-Phenenyltris(sulfonylimino)]-tris[2-deoxy-α-D-glu] [2,2',2"-[s-Phenenyltris(sulfonylimino)]tris[2-deoxy-α-D-glucopyranose], dodecakis (H-sulfate) dodecasodium salt] | +1 Wells |  | 
2 | O=S(=O)(O)OC[C@H]1O[C@H](OS(=O)(=O)O)[C@H](NS(=O)(=O)c2cc(S(=O)(=O)N[C@H]3[C@@H](OS(=O)(=O)O)O[C@H](COS(=O)(=O)O)[C@@H](OS(=O)(=O)O)[C@@H]3OS(=O)(=O)O)cc(S(=O)(=O)N[C@H]3[C@@H](OS(=O)(=O)O)O[C@H](COS(=O)(=O)O)[C@@H](OS(=O)(=O)O)[C@@H]3OS(=O)(=O)O)c2)[C@@H](OS(=O)(=O)O)[C@@H]1OS(=O)(=O)O [2,2',2"-[s-Phenenyltris(sulfonylimino)]tris[2-deoxy-α-D-glucopyranose], dodecakis (H-sulfate) dodecasalt with trimethylamine] |  | +7 Wells | N
3 | O=S(=O)(O)OC[C@H]1O[C@H](OS(=O)(=O)O)[C@H](NS(=O)(=O)c2cc(S(=O)(=O)N[C@H]3[C@@H](OS(=O)(=O)O)O[C@H](COS(=O)(=O)O)[C@@H](OS(=O)(=O)O)[C@@H]3OS(=O)(=O)O)cc(S(=O)(=O)N[C@H]3[C@@H](OS(=O)(=O)O)O[C@H](COS(=O)(=O)O)[C@@H](OS(=O)(=O)O)[C@@H]3OS(=O)(=O)O)c2)[C@@H](OS(=O)(=O)O)[C@@H]1OS(=O)(=O)O [2,2',2"-[ s-Phenenyltris(sulfonylimino)]-tris[2-deoxy-α-D-gl] [2,2',2"-[s-Phenenyltris(sulfonylimino)]tris[2-deoxy-α-D-glucopyranose], dodecakis (H-sulfate) dodecasalt with trimethylamine] | +2 Wells |  | 
